Results published in US20120064044A1, “METHODS OF TREATING EDEMA RELATED TO ISCHEMIA-REPERFUSION” (priority 2009, published 2012).

Assays:
[1] = test system: C57BL/6J mice; test: Murine lung ischemia-reperfusion injury, edema by wet to dry weight ratio (W/D), C57BL/6J mice; format: in vivo, mouse; details: BL6 mice; 10 μg over 30 minutes starting 60 min prior to left hilar clamping for 1 hour; FIGS. 7A and 7B
Protocol: (§1) Mice were anesthetized with ketamine (0.1 mg/gm body weight) and xylazine (0.01 mg/gm) interperitoneally, followed by one-third of the initial dose hourly. Tracheotomy allowed mechanical ventilation (with a tidal volume of 0.4 mL, respiratory rate 120/min, I/E 0.4, PEEP 3 cm H2O, FiO2, 1.0) using a Columbus Instruments Ventilator CIV-101 (Columbus Instruments, Columbus, Ohio, United States of America). The right jugular vein was cannulated for infusion of albumin 2.5% in 0.9% saline, 450 μL/hour by syringe pump (Medfusion 2010i; Medex, Carlsbad, California, United States of America) to maintain hydration. Rectal temperature was monitored and maintained with a heating pad. The left pulmonary hilum was occluded for 1 hour with a microvascular clamp through a left thoracotomy. Reperfusion began with removal of the clamp. Animals were sacrificed at intervals ranging from 15 minutes to 3 hours by cardiectomy, and both lungs were excised. The apical portion of each lung was excised and immediately weighed, then desiccated in a 60° C. oven for 48 hours and re-weighed to determine wet to dry weight ratio (W/D). Remaining lung tissue was flash frozen in liquid nitrogen and stored at −80° C. Lungs excised immediately after sacrifice served as controls.
A further study was performed to compare the effects of pre-treatment with a TLR4 inhibitor. […]

[2] = test system: NF-κB activation; test: NF-κB reporter assay (fluc/β-gal) in HMVECs stimulated with LPS or TNF; format: cell-based, human; details: FIG. 5B
Protocol: FIG. 5B is a bar graph showing the in vitro inhibition of NF-κB activation (based on firefly luciferase (fluc)/β-galactosidase (β-gal) activity) effected by 0.1, 1, 10, and 100 μg concentrations (i.e., Inhib 0.1, Inhib 1, Inhib 10, Inhib 100, respectively) of CRX-526. Fluc/β-gal was measured following stimulation of CRX-526-treated human pulmonary microvascular endothelial cells (HMVECs) with phosphate buffered saline (PBS) only (open bars), 10 ng/mL lipopolysaccharide (LPS) (spotted bars), 5 ng/mL LPS (striped bars), or 0.25 ng/mL tumor necrosis factor (TNF, darkly shaded bars). HMVECs that had not been treated with CRX-526 were used as a control. n=4/group, *p<0.05 compared to other values at same time point by ANOVA.
(§2) Recombinant, first generation E1, E3-deleted adenovirus serotype 5 vectors were prepared (see Sanlioglu et al., J. Biol. Chem., 276, 30188-30198 (2001)) and HMVECs and AMs were transfected as previously described for epithelial cells. See Wu et al., Respir. Res., 6, 26 (2005).

[3] = test system: NF-κB activation mediated through stimulation by Toll-like receptor 2 (TLR2) ligands; test: NF-κB reporter assay (fluc/β-gal) in HMVECs stimulated with TLR2 ligands; format: cell-based, human; details: transfected HMVECs pretreated 1 hour; Pam(3)Cys 25 μg/mL or LTA 1 μg/mL for 8 hours; FIG. 8
Excerpt: FIG. 8 is a bar graph showing the effects of CRX-526 on NF-κB activation mediated through stimulation by Toll-like receptor 2 (TLR2) ligands. Human pulmonary microvascular endothelial cells (HMVECs) were transfected with recombinant first-generation E1, E3-deleted Ad.NF-κB-luciferase and consituitive β-galactosidase vectors so that when NF-κB is activated, the ratio of firefly luciferase (fluc)/β-galactosidase (β-gal) increases. Forty eight hours after transfection, the HMVECs were pretreated for 1 hour with various concentrations of CRX-526 (as shown on the x-axis) and exposed to TLR2 ligands Pam(3)Cys (25 μg/mL, darkly shaded bars) or lipoteichoic acid (LTA; 1 μg/mL, open bars) for 8 hours. Luciferase activity is normalized to β-galactosidase to control for infection efficiency.
as §2

[4] = test system: OuJ mice; test: Murine lung ischemia-reperfusion injury, edema by wet to dry weight ratio (W/D), OuJ mice; format: in vivo, mouse; parameters: dose or concentration left out as unconfirmed; details: intravenously over 30 minutes (200 μL of saline) starting 60 minutes before left hilar clamping, FIG. 5A
Protocol: as §1

[5] = test system: NF-κB activation; test: NF-κB reporter assay (fluc/β-gal) in alveolar macrophages; format: cell-based, mouse; details: 1 μg/mL LPS; native OuJ AMs and AMs from chimeric strain P-M+; FIG. 4A
Protocol: FIG. 4A is a bar graph of NF-κB activation (as measured by firefly luciferase (fluc)/β-galactosidase (β-gal) activity) in alveolar macrophages (AMs) from chimeric mice twelve weeks following bone marrow transplant. The AMs were retrieved by bronchoalveolar lavage (BAL) and infected with Ad.NFκBLuc and Ad.CMV-LacZ, then incubated with either phosphate buffered saline (PBS; open bars) or 1 μg/mL lipopolysaccharide (LPS, darkly shaded bars). The observed firefly luciferase/β-galactosidase activity indicated complete replacement of recipient marrow from either chimeric HeJ strain (P+M−) or chimeric OuJ strain (P−M+). P=parenchymal cells, M=marrow-derived cells, +=intact TLR4 (OuJ), −=non-functional TLR4 (HeJ). AMs retrieved from non-irradiated HeJ and OuJ mice served as controls. n=4 experiments/group, p<0.0001.
AMs from HeJ and OuJ mice were harvested by BAL 120 days after BMT. The trachea was cannulated with a tailored 18 gauge catheter (Becton Dickinson, Sandy, Utah, United States of America). BAL was performed by slow tracheal delivery of 4 aliquots (35 μL×body weight in grams) of pre-warmed, sterile, endotoxin-, calcium-, and magnesium-free PBS with 0.2 mM EGTA. Lavage fluid was withdrawn by gentle suction, pooled for each mouse, and centrifuged at 250 g for 5 minutes. […]

Molecule | edema (W/D) for up to 180 min of reperfusion [1] | TNF stimulation of NF-κB activation ([2]; HMVECs, 0.25 ng/mL TNF) | NF-κB activation in HMVECs exposed to LPS ([2]; LPS 10 or 5 ng/mL, CRX-526 0.1, 1, 10, 100 μg) | NF-κB activation stimulated by TLR2 ligands [3] | edema (W/D) following 1 hour of ischemia-reperfusion [4] | increase in luciferase activity [5]
CCCCCCCCCCC[C@H](CC(=O)N[C@H]1[C@H](OC[C@H](NC(=O)C[C@@H](CCCCCCCCCCC)OC(=O)CCCCC)C(=O)O)O[C@H](CO)[C@@H](OP(=O)(O)O)[C@@H]1OC(=O)C[C@@H](CCCCCCCCCCC)OC(=O)CCCCC)OC(=O)CCCCC [CRX-526] | little if any edema | no impact | prevented NF-κB activation | reduced NF-κB activation | prevented edema | 
lipopolysaccharide [LPS] |  |  |  |  |  | approximately 60 fold
